These results are taken from patent publication US20220220068A1 (published 2022).

A word on the melting point: it is the temperature, or range, at which the solid turns liquid.

Structures are written as SMILES. Structures can show the parent of a compound that is named as a salt.

The molecule `CN/C(=N/c1cc(C)c(C(=O)OCc2ccccc2C)cc1C)OC` had a melting point of 90 to 92 °C. The molecule `CCN(C)/C=N/c1ccc(C(=O)OCc2cccc(C(F)(F)F)c2)c(C)c1C` (as salt: hydrochloride) showed a melting point of 172 to 176 °C.
